Laboratory results: ChEMBL document CHEMBL1201862, “PubChem BioAssay data set” (2004)
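Each compound was tested at five concentrations against cells in 96-well plates for 48 hours. Here, GI50 denotes the concentration required for 50% inhibition of growth.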 Active and inactive are the calls of the source. No stated cut-off is given here; in the data, active = GI50 up to about 1.1 µM and inactive = higher.

Experiments:
Assay in all cases: inhibition of tumour cell growth, NCI panel, 48 h
[1] = tested on: 786-0
[2] = tested on: A549
[3] = tested on: ACHN
[4] = tested on: CCRF-CEM
[5] = tested on: COLO 205
[6] = tested on: DMS-114
[7] = tested on: DMS-273
[8] = tested on: EKVX
[9] = tested on: HCT-116
[10] = tested on: HCT-15
[11] = tested on: HL-60
[12] = tested on: HOP-62
[13] = tested on: HT-29
[14] = tested on: IGROV-1
[15] = tested on: K562
[16] = tested on: KM-20L2
[17] = tested on: KM12
[18] = tested on: LOX IMVI
[19] = tested on: LXFL 529
[20] = tested on: M14
[21] = tested on: M19-MEL
[22] = tested on: MOLT-4
[23] = tested on: Malme-3M
[24] = tested on: NCI-H226
[25] = tested on: NCI-H23
[26] = tested on: NCI-H460
[27] = tested on: NCI-H522
[28] = tested on: OVCAR-3
[29] = tested on: OVCAR-4
[30] = tested on: OVCAR-5
[31] = tested on: OVCAR-8
[32] = tested on: RPMI-8226
[33] = tested on: RXF 393
[34] = tested on: SF-268
[35] = tested on: SF-295
[36] = tested on: SF-539
[37] = tested on: SK-MEL-28
[38] = tested on: SK-MEL-2
[39] = tested on: SK-MEL-5
[40] = tested on: SN12C
[41] = tested on: SNB-19
[42] = tested on: SNB-75
[43] = tested on: SNB-78
[44] = tested on: SR
[45] = tested on: SW-620
[46] = tested on: TK-10
[47] = tested on: U-251
[48] = tested on: UACC-62
[49] = tested on: UO-31
[50] = tested on: XF498
[51] = tested on: A498
[52] = tested on: CAKI-1
[53] = tested on: DLD-1
[54] = tested on: HCC 2998
[55] = tested on: HOP-92
[56] = tested on: SK-OV-3
[57] = tested on: UACC-257

Compound: O=C1CCN(CCC(F)(F)C(F)(F)C(F)(F)C(F)(F)F)C(=S)N1
- GI50 [1]: > 100 µM (inactive)
- GI50 [2]: > 100 µM (inactive)
- GI50 [3]: > 100 µM (inactive)
- GI50 [4]: > 100 µM (inactive)
- GI50 [5]: > 100 µM (inactive)
- GI50 [6]: > 100 µM (inactive)
- GI50 [7]: > 100 µM (inactive)
- GI50 [8]: > 100 µM (inactive)
- GI50 [9]: > 100 µM (inactive)
- GI50 [10]: > 100 µM
- GI50 [11]: > 100 µM (inactive)
- GI50 [12]: > 100 µM (inactive)
- GI50 [13]: > 100 µM (inactive)
- GI50 [14]: > 100 µM (inactive)
- GI50 [15]: > 100 µM (inactive)
- GI50 [16]: > 100 µM (inactive)
- GI50 [17]: > 100 µM (inactive)
- GI50 [18]: > 100 µM (inactive)
- GI50 [19]: > 100 µM (inactive)
- GI50 [20]: > 100 µM (inactive)
- GI50 [21]: > 100 µM (inactive)
- GI50 [22]: > 100 µM (inactive)
- GI50 [23]: > 100 µM (inactive)
- GI50 [24]: > 100 µM (inactive)
- GI50 [25]: > 100 µM (inactive)
- GI50 [26]: > 100 µM (inactive)
- GI50 [27]: > 100 µM (inactive)
- GI50 [28]: > 100 µM (inactive)
- GI50 [29]: > 100 µM (inactive)
- GI50 [30]: > 100 µM (inactive)
- GI50 [31]: > 100 µM (inactive)
- GI50 [32]: > 100 µM (inactive)
- GI50 [33]: > 100 µM (inactive)
- GI50 [34]: > 100 µM (inactive)
- GI50 [35]: > 100 µM (inactive)
- GI50 [36]: > 100 µM (inactive)
- GI50 [37]: > 100 µM (inactive)
- GI50 [38]: > 100 µM (inactive)
- GI50 [39]: > 100 µM (inactive)
- GI50 [40]: > 100 µM (inactive)
- GI50 [41]: > 100 µM (inactive)
- GI50 [42]: > 100 µM (inactive)
- GI50 [43]: > 100 µM (inactive)
- GI50 [44]: > 100 µM (inactive)
- GI50 [45]: > 100 µM (inactive)
- GI50 [46]: > 100 µM (inactive)
- GI50 [47]: > 100 µM (inactive)
- GI50 [48]: > 100 µM (inactive)
- GI50 [49]: > 100 µM (inactive)
- GI50 [50]: > 100 µM (inactive)

Compound: CC1=NN(C(=O)c2ccc(Cl)cc2)C(=O)/C1=C/c1ccc(Cl)cc1
- GI50 [1]: > 100 µM (inactive)
- GI50 [51]: > 100 µM (inactive)
- GI50 [2]: > 100 µM (inactive)
- GI50 [3]: > 100 µM (inactive)
- GI50 [52]: > 100 µM (inactive)
- GI50 [4]: > 100 µM (inactive)
- GI50 [5]: > 100 µM (inactive)
- GI50 [53]: > 100 µM (inactive)
- GI50 [6]: > 100 µM (inactive)
- GI50 [8]: > 100 µM (inactive)
- GI50 [54]: > 100 µM (inactive)
- GI50 [9]: > 100 µM (inactive)
- GI50 [11]: > 100 µM (inactive)
- GI50 [12]: > 100 µM (inactive)
- GI50 [55]: > 100 µM (inactive)
- GI50 [13]: > 100 µM (inactive)
- GI50 [14]: > 100 µM (inactive)
- GI50 [15]: > 100 µM (inactive)
- GI50 [16]: > 100 µM (inactive)
- GI50 [17]: > 100 µM (inactive)
- GI50 [18]: > 100 µM (inactive)
- GI50 [19]: > 100 µM (inactive)
- GI50 [20]: > 100 µM (inactive)
- GI50 [21]: > 100 µM (inactive)
- GI50 [22]: > 100 µM (inactive)
- GI50 [23]: > 100 µM (inactive)
- GI50 [25]: > 100 µM (inactive)
- GI50 [26]: > 100 µM (inactive)
- GI50 [27]: > 100 µM (inactive)
- GI50 [28]: > 100 µM (inactive)
- GI50 [29]: > 100 µM (inactive)
- GI50 [30]: > 100 µM (inactive)
- GI50 [31]: > 100 µM (inactive)
- GI50 [32]: > 100 µM (inactive)
- GI50 [33]: > 100 µM (inactive)
- GI50 [34]: > 100 µM (inactive)
- GI50 [35]: > 100 µM (inactive)
- GI50 [36]: > 100 µM (inactive)
- GI50 [37]: > 100 µM (inactive)
- GI50 [38]: > 100 µM (inactive)
- GI50 [39]: > 100 µM (inactive)
- GI50 [56]: > 100 µM (inactive)
- GI50 [40]: > 100 µM (inactive)
- GI50 [41]: > 100 µM (inactive)
- GI50 [43]: 40.8 µM (inactive)
- GI50 [45]: > 100 µM (inactive)
- GI50 [46]: > 100 µM (inactive)
- GI50 [47]: > 100 µM (inactive)
- GI50 [57]: > 100 µM (inactive)
- GI50 [48]: > 100 µM (inactive)
- GI50 [49]: > 100 µM (inactive)
- GI50 [50]: > 100 µM (inactive)
